Measured values published in US9029377B2, “Platelet-activating factor receptor antagonists” (Merck Sharp & Dohme Corp., priority 2009, dated 2015).

molecular target: PAFR (Homo sapiens, UniProt P25105); assay: PAF Binding Assay (PAFR binding)
Sequence (P25105 whole entry): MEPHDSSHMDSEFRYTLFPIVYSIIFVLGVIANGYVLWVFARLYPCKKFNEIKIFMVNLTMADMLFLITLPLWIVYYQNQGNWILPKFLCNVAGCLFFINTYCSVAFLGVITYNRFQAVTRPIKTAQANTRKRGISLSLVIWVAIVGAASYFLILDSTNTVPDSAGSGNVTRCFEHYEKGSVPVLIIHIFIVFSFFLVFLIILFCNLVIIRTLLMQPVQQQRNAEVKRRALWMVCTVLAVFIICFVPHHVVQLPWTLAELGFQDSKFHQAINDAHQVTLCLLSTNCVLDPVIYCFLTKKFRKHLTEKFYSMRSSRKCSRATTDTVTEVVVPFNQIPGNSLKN

| IC50 | SMILES |
| --- | --- |
| 370 nM | CCc1cccc(S(=O)(=O)N[C@@H]2C[C@H](n3cnnc3)CC(F)(F)C2)c1 [Compound 2Pk, N-[(1R,5S)-3,3-difluoro-5-(4H-1,2,4-triazol-4-yl)cyclohexyl]-3-ethylbenzenesulfonamide] |
| 8.2 nM | Cc1nncn1[C@H]1C[C@@H](NS(=O)(=O)c2ccc(-c3noc(C4CC4)n3)cc2)CC(F)(F)C1 [Compound 2Ql, 4-(5-cyclopropyl-1,2,4-oxadiazol-3-yl)-N-[(1R,5S)-3,3-difluoro-5-(3-methyl-4H-1,2,4-triazol-4-yl)cyclohexyl]benzenesulfonamide] |
| 2.4 nM | O=S(=O)(N[C@H]1CCC[C@@H](n2cnnc2)C1)c1c(C2CC2)cc(-c2noc(C3CC3)n2)cc1C1CC1 [Compound 2Ra, 2,6-dicyclopropyl-4-(5-cyclopropyl-1,2,4-oxadiazol-3-yl)-N-[(1S,3R)-3-(4H-1,2,4-triazol-4-yl)cyclohexyl]benzenesulfonamide] |
| 0.1 nM | O=S(=O)(N[C@H]1CCC[C@@H](n2cnnc2)C1)c1c(C2CC2)cc(-c2noc(C3CCC3)n2)cc1C1CC1 [Compound 2Rb, 4-(5-cyclobutyl-1,2,4-oxadiazol-3-yl)-2,6-dicyclopropyl-N-[(1S,3R)-3-(4H-1,2,4-triazol-4-yl)cyclohexyl]benzenesulfonamide] |
| 2.9 nM | O=S(=O)(N[C@H]1CCC[C@@H](n2cnnc2)C1)c1c(C2CC2)cc(-c2noc(C3CC(F)(F)C3)n2)cc1C1CC1 [Compound 2Rc, 2,6-dicyclopropyl-4-[5-(3,3-difluorocyclobutyl)-1,2,4-oxadiazol-3-yl]-N-[(1S,3R)-3-(4H-1,2,4-triazol-4-yl)cyclohexyl]benzenesulfonamide] |
| 8.6 nM | O=S(=O)(N[C@H]1CCC[C@@H](n2cnnc2)C1)c1c(F)cc(-c2noc(C3CC3)n2)cc1C1CC1 [Compound 2Sa, 2-cyclopropyl-4-(5-cyclopropyl-1,2,4-oxadiazol-3-yl)-6-fluoro-N-[(1S,3R)-3-(4H-1,2,4-triazol-4-yl)cyclohexyl]benzenesulfonamide] |
| 2.6 nM | O=S(=O)(N[C@H]1CCC[C@@H](n2cnnc2)C1)c1c(F)cc(-c2noc(C3CCC3)n2)cc1C1CC1 [Compound 2Sb, 4-(5-cyclobutyl-1,2,4-oxadiazol-3-yl)-2-cyclopropyl-6-fluoro-N-[(1S,3R)-3-(4H-1,2,4-triazol-4-yl)cyclohexyl]benzenesulfonamide] |
| 3.6 nM | CCc1cc(-c2ccc(OC(F)(F)F)cc2)ccc1S(=O)(=O)N[C@H]1CCC[C@@H](n2cnnc2)C1 [Compound 2b, 3-ethyl-N-[(1S,3R)-3-(4H-1,2,4-triazol-4-yl)cyclohexyl]-4′-(trifluoromethoxy)biphenyl-4-sulfonamide] |
| 3.9 nM | CCc1cc(-c2cccn3ccnc23)ccc1S(=O)(=O)N[C@H]1CCC[C@@H](n2cnnc2)C1 [Compound 2d, 2-ethyl-4-imidazo[1,2-a]pyridin-8-yl-N-[(1S,3R)-3-(4H-1,2,4-triazol-4-yl)cyclohexyl]benzenesulfonamide] |

Further lines, the compound ahead of its results:

| SMILES | IC50 |
| --- | --- |
| CCCCOc1ccc(S(=O)(=O)N[C@H]2CCC[C@@H](n3cnnc3C3CC3)C2)cc1F [Compound 2Oaf, 4-butoxy-N-[(1S,3R)-3-(3-cyclopropyl-4H-1,2,4-triazol-4-yl)cyclohexyl]-3-fluorobenzenesulfonamide] | 1.7 nM |
| CCCCOc1ccc(S(=O)(=O)N[C@H]2CCC[C@@H](n3cnnc3C3CC3)C2)c(F)c1 [Compound 2Oag, 4-butoxy-N-[(1S,3R)-3-(3-cyclopropyl-4H-1,2,4-triazol-4-yl)cyclohexyl]-2-fluorobenzenesulfonamide] | 7.2 nM |
| CCCCOc1ccc(S(=O)(=O)N[C@H]2CCC[C@@H](n3cnnc3C3CC3)C2)cc1 [Compound 2Ow, 4-butoxy-N-[(1S,3R)-3-(3-cyclopropyl-4H-1,2,4-triazol-4-yl)cyclohexyl]benzenesulfonamide] | 4.1 nM |
| Cc1nncn1[C@H]1C[C@@H](NS(=O)(=O)c2ccc(OCCCCF)cc2)CC(F)(F)C1 [Compound 2Qad, N-[(1R,5S)-3,3-difluoro-5-(3-methyl-4H-1,2,4-triazol-4-yl)cyclohexyl]-4-(4-fluorobutoxy)-benzenesulfonamide] | 8.8 nM |
| CCCCOc1ccc(S(=O)(=O)N[C@@H]2C[C@H](n3cnnc3C)CC(F)(F)C2)cc1 [Compound 2Qw, 4-butoxy-N-[(1R,5S)-3,3-difluoro-5-(3-methyl-4H-1,2,4-triazol-4-yl)cyclohexyl]benzenesulfonamide] | 4.2 nM |
| O=S(=O)(N[C@H]1CCC[C@@H](n2cnnc2)C1)c1cc(-c2cccc3nccn23)cc(C(F)(F)F)c1 [Compound 3Aaa, 3-imidazo[1,2-a]-pyridin-5-yl-N-[(1S,3R)-3-(4H-1,2,4-triazol-4-yl)cyclohexyl]-5-(trifluoromethyl)benzenesulfonamide] | 13 nM |
| O=S(=O)(N[C@H]1CCC[C@@H](n2cnnc2)C1)c1cc(-c2cc(Cl)cnc2F)cc(C(F)(F)F)c1 [Compound 3Aab, 3-(5-chloro-2-fluoropyridin-3-yl)-N-[(1S,3R)-3-(4H-1,2,4-triazol-4-yl)cyclohexyl]-5-(trifluoromethyl)benzenesulfonamide] | 4 nM |
| O=S(=O)(N[C@H]1CCC[C@@H](n2cnnc2)C1)c1cc(-c2cncc(F)c2)cc(C(F)(F)F)c1 [Compound 3Aac, 3-(5-fluoropyridin-3-yl)-N-[(1S,3R)-3-(4H-1,2,4-triazol-4-yl)cyclohexyl]-5-(trifluoromethyl)benzenesulfonamide] | 20 nM |
| O=S(=O)(N[C@H]1CCC[C@@H](n2cnnc2)C1)c1cc(-c2cccc3ccc(OCC(F)(F)F)nc23)cc(C(F)(F)F)c1 [Compound 3Aad, N-[(1S,3R)-3-(4H-1,2,4-triazol-4-yl)cyclohexyl]-3-[2-(2,2,2-trifluoroethoxy)quinolin-8-yl]-5-(trifluoromethyl)benzenesulfonamide] | 4 nM |
| O=S(=O)(N[C@H]1CCC[C@@H](n2cnnc2)C1)c1cc(-c2cc3ccccc3o2)cc(C(F)(F)F)c1 [Compound 3Aae, 3-(1-benzofuran-2-yl)-N-[(1S,3R)-3-(4H-1,2,4-triazol-4-yl)cyclohexyl]-5-(trifluoromethyl)benzenesulfonamide] | 1.8 nM |
| O=S(=O)(N[C@H]1CCC[C@@H](n2cnnc2)C1)c1cc(-c2cc3ccccc3s2)cc(C(F)(F)F)c1 [Compound 3Aaf, 3-(1-benzothien-2-yl)-N-[(1S,3R)-3-(4H-1,2,4-triazol-4-yl)cyclohexyl]-5-(trifluoromethyl)benzenesulfonamide] | 1.2 nM |
| O=S(=O)(N[C@H]1CCC[C@@H](n2cnnc2)C1)c1cc(-c2ccc3ccc(OCC(F)(F)F)nc3c2)cc(C(F)(F)F)c1 [Compound 3Aag, N-[(1S,3R)-3-(4H-1,2,4-triazol-4-yl)cyclohexyl]-3-[2-(2,2,2-trifluoroethoxy)quinolin-7-yl]-5-(trifluoromethyl)benzenesulfonamide] | 4.9 nM |
| O=S(=O)(N[C@H]1CCC[C@@H](n2cnnc2)C1)c1cc(-c2ccc3nc(C(F)(F)F)nn3n2)cc(C(F)(F)F)c1 [Compound 3Aah, N-[(1S,3R)-3-(4H-1,2,4-triazol-4-yl)cyclohexyl]-3-(trifluoromethyl)-5-[2-(trifluoromethyl)[1,2,4]triazolo[1,5-b]pyridazin-6-yl]benzenesulfonamide] | 18 nM |
| Cc1cn2nc(-c3cc(C(F)(F)F)cc(S(=O)(=O)N[C@H]4CCC[C@@H](n5cnnc5)C4)c3)ccc2n1 [Compound 3Aai, 3-(2-methylimidazo[1,2-b]pyridazin-6-yl)-N-[(1S,3R)-3-(4H-1,2,4-triazol-4-yl)cyclohexyl]-5-(trifluoromethyl)benzenesulfonamide] | 4.1 nM |
| O=S(=O)(N[C@H]1CCC[C@@H](n2cnnc2)C1)c1cc(-c2ccc3nc(C(F)(F)F)cn3n2)cc(C(F)(F)F)c1 [Compound 3Aaj, N-[(1S,3R)-3-(4H-1,2,4-triazol-4-yl)cyclohexyl]-3-(trifluoromethyl)-5-[2-(trifluoromethyl)imidazo[1,2-b]pyridazin-6-yl]benzenesulfonamide] | 27 nM |
| O=S(=O)(N[C@H]1CCC[C@@H](n2cnnc2)C1)c1cc(-c2ccn3nccc3n2)cc(C(F)(F)F)c1 [Compound 3Aak, 3-pyrazolo[1,5-a]pyrimidin-5-yl-N-[(1S,3R)-3-(4H-1,2,4-triazol-4-yl)cyclohexyl]-5-(trifluoromethyl)benzenesulfonamide] | 3.6 nM |
| O=S(=O)(N[C@H]1CCC[C@@H](n2cnnc2)C1)c1cc(-c2ccn3ncnc3c2)cc(C(F)(F)F)c1 [Compound 3Aal, 3-[1,2,4]triazolo[1,5-a]pyridin-7-yl-N-[(1S,3R)-3-(4H-1,2,4-triazol-4-yl)cyclohexyl]-5-(trifluoromethyl)benzenesulfonamide] | 42 nM |
| O=S(=O)(N[C@H]1CCC[C@@H](n2cnnc2)C1)c1cc(-c2cccnc2OCC(F)(F)F)cc(C(F)(F)F)c1 [Compound 3Aam, N-[(1S,3R)-3-(4H-1,2,4-triazol-4-yl)cyclohexyl]-3-[2-(2,2,2-trifluoroethoxy)pyridin-3-yl]-5-(trifluoromethyl)benzenesulfonamide] | 3.2 nM |
| O=S(=O)(N[C@H]1CCC[C@@H](n2cnnc2)C1)c1cc(-c2ccc3nc(C4CC4)nn3c2)cc(C(F)(F)F)c1 [Compound 3Aaq, 3-(2-cyclopropyl[1,2,4]triazolo[1,5-a]pyridin-6-yl)-N-[(1S,3R)-3-(4H-1,2,4-triazol-4-yl)cyclohexyl]-5-(trifluoromethyl)benzenesulfonamide] | 20 nM |
| O=S(=O)(N[C@H]1CCC[C@@H](n2cnnc2)C1)c1cc(-c2ccsc2)cc(C(F)(F)F)c1 [Compound 3Aar, 3-(3-thienyl)-N-[(1S,3R)-3-(4H-1,2,4-triazol-4-yl)cyclohexyl]-5-(trifluoromethyl)benzenesulfonamide] | 9.2 nM |
| O=S(=O)(N[C@H]1CCC[C@@H](n2cnnc2)C1)c1cc(-c2cccs2)cc(C(F)(F)F)c1 [Compound 3Aas, 3-(2-thienyl)-N-[(1S,3R)-3-(4H-1,2,4-triazol-4-yl)cyclohexyl]-5-(trifluoromethyl)benzenesulfonamide] | 3.8 nM |
| O=S(=O)(N[C@H]1CCC[C@@H](n2cnnc2)C1)c1cc(-c2cc(Cl)cn3ccnc23)cc(C(F)(F)F)c1 [Compound 3Aat, 3-(6-chloroimidazo[1,2-a]pyridin-8-yl)-N-[(1S,3R)-3-(4H-1,2,4-triazol-4-yl)cyclohexyl]-5-(trifluoromethyl)benzenesulfonamide] | 2.7 nM |
